From patent US8895551B2, “Acrylamide compounds and the use thereof” (Shionogi & Co., Ltd., priority 2009, dated 2014)

These molecules were tested against T1, N-type calcium channel (NTCC) (Homo sapiens, UniProt Q00975) (assay: FLIPR calcium mobilization assay for N-type calcium channel). Conditions: N-type calcium channel (NTCC) blockers after a calcium mobilization in vitro assay; differentiated IMR32 cells.
T1 construct: host or cells: IMR32 cells differentiated with dibutyryl cyclic AMP and bromodeoxyuridine
T1 sequence (Q00975 whole entry): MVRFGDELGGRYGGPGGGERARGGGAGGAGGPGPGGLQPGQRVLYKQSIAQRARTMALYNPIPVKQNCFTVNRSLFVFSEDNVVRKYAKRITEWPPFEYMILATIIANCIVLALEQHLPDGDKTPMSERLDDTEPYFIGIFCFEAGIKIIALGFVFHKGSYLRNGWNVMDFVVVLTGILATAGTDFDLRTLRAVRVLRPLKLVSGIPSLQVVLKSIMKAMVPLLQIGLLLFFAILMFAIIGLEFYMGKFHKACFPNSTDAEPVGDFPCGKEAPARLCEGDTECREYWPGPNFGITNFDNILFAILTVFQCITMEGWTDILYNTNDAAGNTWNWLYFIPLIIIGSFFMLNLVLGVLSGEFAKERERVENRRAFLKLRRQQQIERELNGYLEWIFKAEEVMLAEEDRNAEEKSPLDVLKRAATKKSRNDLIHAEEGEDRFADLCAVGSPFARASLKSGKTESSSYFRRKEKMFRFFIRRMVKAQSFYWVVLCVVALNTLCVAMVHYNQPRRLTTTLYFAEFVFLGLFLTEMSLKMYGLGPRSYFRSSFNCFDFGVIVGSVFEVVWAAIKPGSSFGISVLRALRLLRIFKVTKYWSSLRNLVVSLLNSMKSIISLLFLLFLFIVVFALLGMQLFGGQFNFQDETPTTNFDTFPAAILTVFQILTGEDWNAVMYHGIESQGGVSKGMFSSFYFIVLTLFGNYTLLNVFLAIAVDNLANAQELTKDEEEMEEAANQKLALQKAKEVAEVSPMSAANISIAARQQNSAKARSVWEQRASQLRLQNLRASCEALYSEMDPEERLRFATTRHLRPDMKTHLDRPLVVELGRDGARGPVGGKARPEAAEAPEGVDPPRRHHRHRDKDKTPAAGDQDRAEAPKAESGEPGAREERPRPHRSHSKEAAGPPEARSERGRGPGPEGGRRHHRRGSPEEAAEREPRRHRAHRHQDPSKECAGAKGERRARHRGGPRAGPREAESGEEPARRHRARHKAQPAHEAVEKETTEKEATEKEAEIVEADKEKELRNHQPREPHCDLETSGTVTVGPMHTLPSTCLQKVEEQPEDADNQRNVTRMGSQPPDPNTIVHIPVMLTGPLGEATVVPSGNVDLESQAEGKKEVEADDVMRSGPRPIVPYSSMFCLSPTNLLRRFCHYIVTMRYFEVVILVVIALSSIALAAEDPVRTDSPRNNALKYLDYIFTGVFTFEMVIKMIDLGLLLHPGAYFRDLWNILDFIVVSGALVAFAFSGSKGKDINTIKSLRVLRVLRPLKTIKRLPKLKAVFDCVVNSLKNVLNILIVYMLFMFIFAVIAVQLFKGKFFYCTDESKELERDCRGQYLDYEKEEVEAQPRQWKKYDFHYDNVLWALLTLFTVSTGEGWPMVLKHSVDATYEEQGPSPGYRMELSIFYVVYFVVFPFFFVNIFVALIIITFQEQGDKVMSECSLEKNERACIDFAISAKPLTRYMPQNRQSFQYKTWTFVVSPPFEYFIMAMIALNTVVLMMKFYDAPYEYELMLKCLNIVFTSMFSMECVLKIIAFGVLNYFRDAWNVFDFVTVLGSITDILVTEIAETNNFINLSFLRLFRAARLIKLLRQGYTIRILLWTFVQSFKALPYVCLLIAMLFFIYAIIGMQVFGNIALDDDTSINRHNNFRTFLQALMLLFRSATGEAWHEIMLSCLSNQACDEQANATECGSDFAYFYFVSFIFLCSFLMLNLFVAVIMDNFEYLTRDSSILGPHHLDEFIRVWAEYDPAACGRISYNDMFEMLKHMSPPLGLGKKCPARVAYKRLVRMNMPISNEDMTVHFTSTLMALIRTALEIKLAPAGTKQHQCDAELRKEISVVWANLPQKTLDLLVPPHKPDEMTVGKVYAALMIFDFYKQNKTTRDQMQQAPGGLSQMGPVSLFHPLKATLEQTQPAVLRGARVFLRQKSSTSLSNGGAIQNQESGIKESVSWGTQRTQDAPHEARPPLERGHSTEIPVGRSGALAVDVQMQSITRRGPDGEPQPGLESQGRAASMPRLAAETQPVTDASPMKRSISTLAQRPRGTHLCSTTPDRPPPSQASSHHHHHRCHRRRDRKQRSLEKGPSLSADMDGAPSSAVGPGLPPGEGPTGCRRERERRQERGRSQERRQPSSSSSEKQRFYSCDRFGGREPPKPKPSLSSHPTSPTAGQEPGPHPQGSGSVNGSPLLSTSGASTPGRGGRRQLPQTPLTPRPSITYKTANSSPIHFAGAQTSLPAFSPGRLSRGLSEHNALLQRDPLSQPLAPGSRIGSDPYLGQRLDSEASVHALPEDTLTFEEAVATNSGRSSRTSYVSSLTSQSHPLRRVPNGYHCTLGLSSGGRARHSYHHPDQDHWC
T1 sequence (P54289 25-956 partner limits assumed): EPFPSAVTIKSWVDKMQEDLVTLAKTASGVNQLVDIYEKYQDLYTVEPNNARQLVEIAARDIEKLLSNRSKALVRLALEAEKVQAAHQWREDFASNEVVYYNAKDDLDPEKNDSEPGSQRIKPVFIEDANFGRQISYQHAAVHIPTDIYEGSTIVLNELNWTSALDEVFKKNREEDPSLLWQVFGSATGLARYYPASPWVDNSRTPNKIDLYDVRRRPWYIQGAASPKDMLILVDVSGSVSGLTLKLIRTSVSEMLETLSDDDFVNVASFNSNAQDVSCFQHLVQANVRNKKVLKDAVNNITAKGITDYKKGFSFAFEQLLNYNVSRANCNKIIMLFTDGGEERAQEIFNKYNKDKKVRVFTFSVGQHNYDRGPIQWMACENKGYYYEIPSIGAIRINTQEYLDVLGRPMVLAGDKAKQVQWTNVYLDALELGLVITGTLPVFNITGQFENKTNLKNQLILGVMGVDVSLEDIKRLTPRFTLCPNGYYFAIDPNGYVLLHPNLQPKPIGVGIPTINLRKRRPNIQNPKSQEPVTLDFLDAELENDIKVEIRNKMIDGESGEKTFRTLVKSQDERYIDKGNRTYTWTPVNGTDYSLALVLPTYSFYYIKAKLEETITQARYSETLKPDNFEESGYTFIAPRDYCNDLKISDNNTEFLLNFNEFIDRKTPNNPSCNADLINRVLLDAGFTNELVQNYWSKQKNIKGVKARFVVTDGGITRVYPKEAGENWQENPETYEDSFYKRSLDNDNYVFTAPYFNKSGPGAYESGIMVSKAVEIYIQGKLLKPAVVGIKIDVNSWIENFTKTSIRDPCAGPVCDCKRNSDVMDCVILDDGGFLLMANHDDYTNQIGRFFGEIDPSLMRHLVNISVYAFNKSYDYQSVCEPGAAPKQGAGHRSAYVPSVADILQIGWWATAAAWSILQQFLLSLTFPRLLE
T1 sequence (P54289 957-1103 partner limits assumed): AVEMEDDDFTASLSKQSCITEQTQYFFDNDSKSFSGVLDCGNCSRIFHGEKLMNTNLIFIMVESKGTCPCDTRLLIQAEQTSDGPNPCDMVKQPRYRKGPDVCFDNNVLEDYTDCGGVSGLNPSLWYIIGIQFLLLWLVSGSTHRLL
T1 sequence (P54284 whole entry partner): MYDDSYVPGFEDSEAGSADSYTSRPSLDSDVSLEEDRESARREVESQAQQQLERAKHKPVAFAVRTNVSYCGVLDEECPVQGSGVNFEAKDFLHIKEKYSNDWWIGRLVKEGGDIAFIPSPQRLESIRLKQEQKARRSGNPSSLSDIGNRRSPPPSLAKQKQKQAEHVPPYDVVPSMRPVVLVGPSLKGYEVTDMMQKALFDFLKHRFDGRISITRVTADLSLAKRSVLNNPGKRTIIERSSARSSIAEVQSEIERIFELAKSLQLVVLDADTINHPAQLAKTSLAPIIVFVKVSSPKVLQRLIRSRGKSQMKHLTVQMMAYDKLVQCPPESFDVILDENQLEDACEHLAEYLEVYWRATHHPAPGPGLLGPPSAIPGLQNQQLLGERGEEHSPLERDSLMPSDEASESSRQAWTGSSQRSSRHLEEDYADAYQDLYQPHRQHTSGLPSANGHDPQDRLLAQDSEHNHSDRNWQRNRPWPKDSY
Format: cell-based
Procedure: Cell maintenance and differentiation. Unless noted otherwise, cell culture reagents were purchased from Mediatech of Herndon, Md. IMR32 cells (American Type Culture Collection, ATCC, Manassas, Va.) were routinely cultured in growth medium consisting of minimum essential medium containing 10% fetal bovine serum (FBS, Hyclone, Logan, Utah), 100 U/mL penicillin, 100 μg/mL streptomycin, 2 mM L-glutamine, 1 mM sodium pyruvate, and 1×MEM non-essential amino acids. 80-90% confluent flasks of cells were differentiated using the following differentiation medium: Growth medium plus 1 mM dibutyryl cyclic AMP (Sigma, St. Louis, Mo.), and 2.5 μM bromodeoxyuridine (Sigma). Cells were differentiated for 8 days by replacing differentiation medium every 2-3 days.
FLIPR Calcium Mobilization Assay for N-type Calcium Channel. One day prior to performing this assay, differentiated IMR32 cells were treated with 1× CellStripper, and seeded on poly-D-lysine-coated 96-well clear-bottom black plates (Becton Dickinson, Franklin Lakes, N.J.) at 200,000 cells/well. On the day of the assay, the cell plates were washed with IMR32 buffer (127 mM NaCl, 1 mM KCl, 2 mM MgCl2, 700 μM NaH2PO4, 5 mM CaCl2, 5 mM NaHCO3, 8 mM HEPES, 10 mM glucose, pH 7.4), then pre-stimulated with KCl and loaded as follows: 0.05 mL of IMR^32 buffer, 0.05 mL of each compound tested diluted in IMR^32 buffer containing 20 μM nitrendipine (Sigma), and 0.1 mL KCl dissolved in IMR^32 buffer, plus Fluo-4 were added (3 μM final concentration, Molecular Probes, Eugene, Oreg.). Final test compound concentrations ranged from about 846 μM to about 17 μM, final nitrendipine concentration was 5 μM, and final KCl concentration was 90 mM. After 1 hour, the cells were washed twice with 0.05 mL of each compound tested in nitrendipine-containing IMR32 buffer (no KCl or Fluo-4), and then replaced with 0.1 mL of each compound tested in nitrendipine-containing IMR^32 buffer. Plates were then transferred to a Fluorimetric Imaging Plate Reader (FLIPR^96, Molecular Devices, Inc., Sunnyvale, Calif.) for assay. The FLIPR measured basal Fluo-4 fluorescence for 315 seconds (i.e., 5 minutes and 15 seconds), then added 0.1 mL KCl agonist dissolved in IMR32 buffer and measured fluorescence for another 45 seconds. Final test compound concentrations on the cells after FLIPR read ranged from about 846 μM to about 17 μM, final nitrendipine concentration was 5 μM, and final KCl concentration was 90 mM. Data were collected over the entire time course and analyzed using Excel, Graph Pad Prism (version 3.02, Graph Pad, San Diego, Calif.), or an in-house non-linear regression analysis software.
For `O=C(C=C1CCN(S(=O)(=O)c2ccc(OC(F)(F)F)cc2)CC1)NCc1ccccc1` [Example 3, N-benzyl-2-(1-(4-(trifluoromethoxy)phenylsulfonyl)piperidin-4-ylidene)Acetamide], the IC50 was 598 nM. For `O=C(C=C1CCN(S(=O)(=O)c2ccc(OC(F)(F)F)cc2)CC1)NCc1ccc(F)cc1` [Example 9, N-(4-fluorobenzyl)-2-(1-(4-(trifluoromethoxy)phenylsulfonyl)piperidin-4-ylidene)Acetamide], the IC50 was 115 nM. `CN(Cc1ccc(F)cc1)C(=O)C=C1CCN(S(=O)(=O)c2ccc(OC(F)(F)F)cc2)CC1` [Example 10, N-(4-fluorobenzyl)-N-methyl-2-(1-(4-(trifluoromethoxy)phenylsulfonyl)piperidin-4-ylidene)Acetamide] showed an IC50 of 161 nM. Molecule `N#Cc1ccc(CNC(=O)C=C2CCN(S(=O)(=O)c3ccc(OC(F)(F)F)cc3)CC2)cc1` [Example 11, N-(4-cyanobenzyl)-2-(1-(4-(trifluoromethoxy)phenylsulfonyl)piperidin-4-ylidene)Acetamide] has an IC50 of 560 nM. Work on `O=C(C=C1CCN(S(=O)(=O)c2ccc(OC(F)(F)F)cc2)CC1)NC1(c2ccc(F)cc2)CC1` [Example 12, N-(1-(4-fluorophenyl)cyclopropyl)-2-(1-(4-(trifluoromethoxy)phenylsulfonyl)piperidin-4-ylidene)Acetamide] yielded an IC50 of 361 nM. In the case of `O=C(C=C1CCN(S(=O)(=O)c2ccc(OC(F)(F)F)cc2)CC1)NCCC1CC1` [Example 13, N-(2-cyclopropylethyl)-2-(1-(4-(trifluoromethoxy)phenylsulfonyl)piperidin-4-ylidene)Acetamide], the IC50 is reported as 248 nM. Molecule `CC(C)OCCNC(=O)C=C1CCN(S(=O)(=O)c2ccc(OC(F)(F)F)cc2)CC1` [Example 15, N-(2-isopropoxyethyl)-2-(1-(4-(trifluoromethoxy)phenylsulfonyl)piperidin-4-ylidene)Acetamide] has an IC50 of 718 nM. In the case of `COC(=O)C(NC(=O)C=C1CCN(S(=O)(=O)c2ccc(OC(F)(F)F)cc2)CC1)c1ccc(F)cc1` (centres unmarked) [Example 19, methyl 2-(4-fluorophenyl)-2-(2-(1-(4-(trifluoromethoxy)phenylsulfonyl)piperidin-4-ylidene)acetamido)Acetate], the IC50 is reported as 865 nM. Molecule `O=C(C=C1CCN(S(=O)(=O)c2ccc(OC(F)(F)F)cc2)CC1)NC(CO)c1ccc(F)cc1` (centres unmarked) [Example 20, N-(1-(4-fluorophenyl)-2-hydroxyethyl)-2-(1-(4-(trifluoromethoxy)phenylsulfonyl)piperidin-4-ylidene)acetamide] has an IC50 of 822 nM. In the case of `O=C(C=C1CCN(S(=O)(=O)c2cccc(C(F)(F)F)c2)CC1)NCC1CC1` [Example 22, N-(cyclopropylmethyl)-2-(1-(3-(trifluoromethyl)phenylsulfonyl)piperidin-4-ylidene)acetamide], the IC50 is reported as 829 nM. `CC(C)(c1cccc(C(F)(F)F)c1)N1CCC(=CC(=O)NCC2CC2)CC1` [Example 31, N-(cyclopropylmethyl)-2-(1-(2-(3-(trifluoromethyl)phenyl)propan-2-yl)piperidin-4-ylidene)acetamide] showed an IC50 of 681 nM. `COC(C(=O)NCC1CC1)=C1CCN(S(=O)(=O)c2ccc(OC(F)(F)F)cc2)CC1` [Example 32, N-(cyclopropylmethyl)-2-methoxy-2-(1-(4-(trifluoromethoxy)phenylsulfonyl)piperidin-4-ylidene)acetamide] was tested, and the IC50 was 912 nM. `CO/C(=C\C1CCN(S(=O)(=O)c2ccc(OC(F)(F)F)cc2)CC1)C(=O)NC1CC1` [Example 37, (Z)—N-cyclopropyl-2-methoxy-3-(1-(4-(trifluoromethoxy)phenylsulfonyl)piperidin-4-yl)acrylamide] was tested, and the IC50 was 555 nM. `CO/C(=C/C1CCN(S(=O)(=O)c2ccc(OC(F)(F)F)cc2)CC1)C(=O)NC1CC1` [Example 38, (E)-N-cyclopropyl-2-methoxy-3-(1-(4-(trifluoromethoxy)phenylsulfonyl)piperidin-4-yl)acrylamide] gave an IC50 of 832 nM. Work on `O=C(/C=C1\CCCN(S(=O)(=O)c2ccc(OC(F)(F)F)cc2)C1)NCC1CC1` [Example 40, (E)-N-(cyclopropylmethyl)-2-(1-(4-(trifluoromethoxy)phenylsulfonyl)piperidin-3-ylidene)acetamide] yielded an IC50 of 695 nM. With `O=C(/C=C1\CCCN(S(=O)(=O)c2ccc(OC(F)(F)F)cc2)C1)NC1CC1` [Example 41, (E)-N-cyclopropyl-2-(1-(4-(trifluoromethoxy)phenylsulfonyl)piperidin-3-ylidene)acetamide] the IC50 was 990 nM. Molecule `CO/C(=C\C1CN(S(=O)(=O)c2ccc(OC(F)(F)F)cc2)CCO1)C(=O)NC1CC1` (centres unmarked) [Example 44, (Z)—N-cyclopropyl-2-methoxy-3-(4-(4-(trifluoromethoxy)phenylsulfonyl)morpholin-2-yl)acrylamide] has an IC50 of 857 nM.
